# Tested on: VR1 receptor (293 cells expressing capsaicin-insensitive VR1 receptor variants)
# Test: High throughput screening of VR1 antagonists using a calcium imaging assay (Fura2, pH 5.1 stimulus);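 note: Fura2 ratiometric fluorescence read every 4 s over 3 min, response taken as peak ratio minus baseline before pre-treatment, compound pre-treatment preceding acid challenge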
# Settings: 1 uM compound; inhibition of calcium ion influx
# Description: A dual wavelength ratiometric dye, Fura2, was used as an indicator of relative levels of calcium ions in a 96 well format using a bench top scanning fluorometer with integrated fluidics and temperature control (Flex Station, Molecular Devices).
# A dual wavelength ratiometric dye, Fura2, was used as an indicator of relative levels of [Ca2+] in a 96 well format using a bench top scanning fluorometer with integrated fluidics and temperature control (Flex Station, Molecular Devices).
# 293 cells were grown on PDL coated 96-well black-walled plates, in the presence of a DMEM medium containing 5% Penstrep, 5% Glutamax, 200 ug/mL Hygromycin, 5 μg/mL Blasticide and 10% heat inactivated FBS. Prior to assay, the cells were loaded with 5 μg/mL Fura2 in normal saline solution at 37° C. for 40 minutes. Cells were then washed with normal saline to remove the dye.
# The assay consists of two stages; a pre-treatment phase followed by a treatment phase.
# 50 μl of a compound solution was added to the cells (Pre-treatment). Immediately following, 50 μl of the test compound in a saline solution at pH 5.1 was added. […] Changes in wavelength measurements were made throughout the course of the experiment in 4 second intervals over a period of 3 minutes. Responses were measured as peak fluorescence ratio after test compound addition minus baseline fluorescence ratio prior to pre-treatment and were calculated using SoftMaxPro softwareData were expressed as percentage inhibition calculated using Excel as follows:
row,SMILES,% Inhibition @ 1 uM
1,COc1ccc(NC(=O)c2ccc(-c3ncccc3Cl)cc2F)cc1Cl [Compound 1096],++ (compound exhibited 25-50% inhibition of calcium ion influx induced by capsaicin stimulation)
2,O=C(Nc1ccc(N2CCOCC2)cc1)c1ccc(-c2ncccc2Cl)cc1 [Compound 1062],+ (compound exhibited 0-25% inhibition of calcium ion influx induced by capsaicin stimulation)
3,COc1cc(C(=O)Nc2cccc(OC(C)C)c2)ccc1-c1ncccc1Cl [Compound 1270],+ (compound exhibited 0-25% inhibition of calcium ion influx induced by capsaicin stimulation)
4,CCCOc1ccc(NC(=O)c2ccc(-c3ncccc3Cl)c(F)c2)cc1 [Compound 1190],++ (compound exhibited 25-50% inhibition of calcium ion influx induced by capsaicin stimulation)
5,COc1cc(C(=O)Nc2ccc(F)c(F)c2)ccc1-c1ncccc1Cl [Compound 1271],+++ (compound exhibited 50-75% inhibition of calcium ion influx induced by capsaicin stimulation)
6,COc1cccc(NC(=O)c2ccc(-c3ncccc3Cl)cc2)c1 [Compound 1019],+ (compound exhibited 0-25% inhibition of calcium ion influx induced by capsaicin stimulation)
7,CN1CCCc2ccc(NC(=O)c3ccc(-c4ncccc4Cl)c(F)c3)cc21 [Compound 1203],+ (compound exhibited 0-25% inhibition of calcium ion influx induced by capsaicin stimulation)
8,O=C(Nc1ccncc1)c1ccc(-c2ncccc2Cl)cc1F [Compound 1079],+ (compound exhibited 0-25% inhibition of calcium ion influx induced by capsaicin stimulation)
9,COc1cc(C(=O)Nc2cc(C)nc(C)n2)ccc1-c1ncccc1Cl [Compound 1249],+ (compound exhibited 0-25% inhibition of calcium ion influx induced by capsaicin stimulation)
10,COc1ccc(NC(=O)c2ccc(-c3ncccc3Cl)cc2)cc1Cl [Compound 1034],+ (compound exhibited 0-25% inhibition of calcium ion influx induced by capsaicin stimulation)
11,COc1ccccc1NC(=O)c1ccc(-c2ncccc2Cl)cc1 [Compound 1030],++++ (compound exhibited 75% or greater inhibition of calcium ion influx induced by capsaicin stimulation)
12,O=C(Nc1ccc2ccccc2c1)c1ccc(-c2ncccc2Cl)c(F)c1 [Compound 1177],++++ (compound exhibited 75% or greater inhibition of calcium ion influx induced by capsaicin stimulation)
13,Cc1cc(NC(=O)c2ccc(-c3ncccc3Cl)cc2)nc(C)n1 [Compound 1052],+ (compound exhibited 0-25% inhibition of calcium ion influx induced by capsaicin stimulation)
14,O=C(Nc1cccc(Br)c1)c1ccc(-c2ncccc2Cl)cc1 [Compound 1038],+ (compound exhibited 0-25% inhibition of calcium ion influx induced by capsaicin stimulation)
15,O=C(Nc1ccnc(Cl)c1)c1ccc(-c2ncccc2Cl)cc1 [Compound 1050],++++ (compound exhibited 75% or greater inhibition of calcium ion influx induced by capsaicin stimulation)
16,O=C(Nc1ccccc1Cl)c1ccc(-c2ncccc2Cl)cc1 [Compound 1032],+ (compound exhibited 0-25% inhibition of calcium ion influx induced by capsaicin stimulation)
17,O=C(Nc1ccc2ccccc2c1)c1ccc(-c2ncccc2Cl)cn1 [Compound 1348],++ (compound exhibited 25-50% inhibition of calcium ion influx induced by capsaicin stimulation)
18,COc1cc(C(=O)Nc2ccc(C)cc2C)ccc1-c1ncccc1Cl [Compound 1223],++++ (compound exhibited 75% or greater inhibition of calcium ion influx induced by capsaicin stimulation)
19,O=C(Nc1ccc(OC(F)(F)F)cc1)c1ccc(-c2ncccc2Cl)cn1 [Compound 1360],+ (compound exhibited 0-25% inhibition of calcium ion influx induced by capsaicin stimulation)
20,O=C(Nc1ccc(C2CCCCC2)cc1)c1ccc(-c2ncccc2Cl)cn1 [Compound 1320],++++ (compound exhibited 75% or greater inhibition of calcium ion influx induced by capsaicin stimulation)
21,O=C(Nc1cccc(Br)c1)c1ccc(-c2ncccc2Cl)cc1F [Compound 1100],++++ (compound exhibited 75% or greater inhibition of calcium ion influx induced by capsaicin stimulation)
22,COc1cc(C(=O)Nc2ccc(N3CCOCC3)c(Cl)c2)ccc1-c1ncccc1Cl [Compound 1276],+ (compound exhibited 0-25% inhibition of calcium ion influx induced by capsaicin stimulation)
23,CC(C)(NC(=O)c1ccc(-c2ncccc2Cl)cc1F)c1ccccc1 [Compound 1083],+ (compound exhibited 0-25% inhibition of calcium ion influx induced by capsaicin stimulation)

row,SMILES,% Inhibition @ 1 uM
1,O=C(Nc1ccccc1)c1ccc(-c2ncccc2Cl)cc1 [Compound 1020],+ (compound exhibited 0-25% inhibition of calcium ion influx induced by capsaicin stimulation)
2,COc1cc(C(=O)Nc2ccc(C(F)(F)F)cc2)ccc1-c1ncccc1Cl [Compound 1230],++ (compound exhibited 25-50% inhibition of calcium ion influx induced by capsaicin stimulation)
3,O=C(Nc1ccc(C2CCCCC2)cc1)c1ccc(-c2ncccc2Cl)cc1 [Compound 1044],++++ (compound exhibited 75% or greater inhibition of calcium ion influx induced by capsaicin stimulation)
4,O=C(Nc1ccc(Cl)cc1Cl)c1ccc(-c2ncccc2Cl)cc1 [Compound 1033],+ (compound exhibited 0-25% inhibition of calcium ion influx induced by capsaicin stimulation)
5,COc1cc(C(=O)Nc2cccc(Cl)c2)ccc1-c1ncccc1Cl [Compound 1210],+ (compound exhibited 0-25% inhibition of calcium ion influx induced by capsaicin stimulation)
6,COc1ccc(NC(=O)c2ccc(-c3ncccc3Cl)cn2)cn1 [Compound 1341],++ (compound exhibited 25-50% inhibition of calcium ion influx induced by capsaicin stimulation)
7,CCOc1ccc(NC(=O)c2ccc(-c3ncccc3Cl)c(OC)c2)cc1 [Compound 1273],+ (compound exhibited 0-25% inhibition of calcium ion influx induced by capsaicin stimulation)
8,O=C(Nc1ccc(C(F)(F)F)cc1)c1ccc(-c2ncccc2Cl)cn1 [Compound 1325],+ (compound exhibited 0-25% inhibition of calcium ion influx induced by capsaicin stimulation)
9,COc1cc(C(=O)Nc2cccc(C(F)(F)F)c2)ccc1-c1ncccc1Cl [Compound 1267],++ (compound exhibited 25-50% inhibition of calcium ion influx induced by capsaicin stimulation)
10,COc1cc(C(=O)Nc2cccnc2)ccc1-c1ncccc1Cl [Compound 1236],+ (compound exhibited 0-25% inhibition of calcium ion influx induced by capsaicin stimulation)
11,COc1cc(C(=O)Nc2ccc3cn[nH]c3c2)ccc1-c1ncccc1Cl [Compound 1264],++ (compound exhibited 25-50% inhibition of calcium ion influx induced by capsaicin stimulation)
12,N#Cc1cccc(NC(=O)c2ccc(-c3ncccc3Cl)cn2)c1 [Compound 1316],++++ (compound exhibited 75% or greater inhibition of calcium ion influx induced by capsaicin stimulation)
13,CC(C)c1ccc(NC(=O)c2ccc(-c3ncccc3Cl)cc2)cc1 [Compound 1042],++++ (compound exhibited 75% or greater inhibition of calcium ion influx induced by capsaicin stimulation)
14,CN(C)c1cccc(NC(=O)c2ccc(-c3ncccc3Cl)cc2)c1 [Compound 1060],++++ (compound exhibited 75% or greater inhibition of calcium ion influx induced by capsaicin stimulation)
15,O=C(Nc1ccc(Cl)nc1)c1ccc(-c2ncccc2Cl)cc1 [Compound 1048],+ (compound exhibited 0-25% inhibition of calcium ion influx induced by capsaicin stimulation)
16,COc1cc(C(=O)Nc2ccncn2)ccc1-c1ncccc1Cl [Compound 1242],++ (compound exhibited 25-50% inhibition of calcium ion influx induced by capsaicin stimulation)
17,O=C(Nc1ccc(N2CCOCC2)c(Cl)c1)c1ccc(-c2ncccc2Cl)c(F)c1 [Compound 1200],++++ (compound exhibited 75% or greater inhibition of calcium ion influx induced by capsaicin stimulation)
18,O=C(Nc1ccncn1)c1ccc(-c2ncccc2Cl)cn1 [Compound 1336],++++ (compound exhibited 75% or greater inhibition of calcium ion influx induced by capsaicin stimulation)
19,Cc1ccnc(NC(=O)c2ccc(-c3ncccc3Cl)c(F)c2)c1 [Compound 1162],++++ (compound exhibited 75% or greater inhibition of calcium ion influx induced by capsaicin stimulation)
20,O=C(Nc1ccnc(Cl)c1)c1ccc(-c2ncccc2Cl)cn1 [Compound 1342],+ (compound exhibited 0-25% inhibition of calcium ion influx induced by capsaicin stimulation)
21,O=C(Nc1ccc(OC(F)(F)F)cc1)c1ccc(-c2ncccc2Cl)cc1 [Compound 1293],+ (compound exhibited 0-25% inhibition of calcium ion influx induced by capsaicin stimulation)
22,O=C(Nc1ccc2c(c1)Cc1ccccc1-2)c1ccc(-c2ncccc2Cl)cc1 [Compound 1053],++ (compound exhibited 25-50% inhibition of calcium ion influx induced by capsaicin stimulation)
23,O=C(Nc1cccc(OC(F)(F)F)c1)c1ccc(-c2ncccc2Cl)cn1 [Compound 1361],++ (compound exhibited 25-50% inhibition of calcium ion influx induced by capsaicin stimulation)

# Source: patent publication US7338950B2, “Amide compounds as ion channel ligands and uses thereof” (Renovis, Inc., priority 2003, dated 2008)
